Data set [1] has as its system Staphylococcus aureus. Kind of data set: silkworm Staphylococcus aureus infection model (therapeutic effect). Format: in vivo, silkworm (larva of Bombyx mori). The settings on record: purification stages, Table 2. An excerpt:
In the present invention too, a first screening to narrow down effective strains from several tens of thousands of extraordinary large numbers of strains may be done by any method as far as the antibacterial activity can be evaluated with the said method; and thus, for example, by referring to MIC, test bodies showing the antibacterial activity to Staphylococcus aureus in culture supernatant of each strain may be picked up. This is because strains not showing the antibacterial activity at all are not in the scope of examination. Any method capable of evaluating the antibacterial activity may be used; but a method with which a strain recognized to show, with referring to MIC, the antibacterial activity to Staphylococcus aureus in culture supernatant of various test strains is picked up is preferable. […]
Strains recognized to show the therapeutic effect in the silkworm Staphylococcus aureus infection model are further subjected to various separation and purification treatments wherein the therapeutic effect is evaluated in each operation by using the silkworm Staphylococcus aureus infection model. […]

Data set [2] concerns Staphylococcus aureus (MSSA1). The source says: (§1) Antibacterial activity of the antibiotic-substance-containing fraction at each fractionation stage from a culture produced from RH2180-5 and that of the antibiotic substance obtained therefrom by separation and purification thereof can be evaluated by MIC. […] For example, it is done with a broth microdilution method based on CLSI (formerly NCCLS: National Committee for Clinical Laboratory Standards).
Antibacterial spectrum of the RH2180-5 Peak 5 Substance to various bacteria including MRSA and VRE was studied. In addition, influence of chemical resistance was also studied. For study of the latter, Staphylococcus aureus and Enterococcus faecalis were selected, wherein measurement of MIC value of each peak substance was made by a broth microdilution method based on CLSI (formerly NCCLS: National Committee for Clinical Laboratory Standards) as to Staphylococcus aureus not showing resistance to a chemical (hereinafter abbreviated as “MSSA 1”) and two kinds of MRSA showing resistance to many chemicals including methicillin (MRSA 3 and MRSA 4; see Table 3 for resistive chemicals) for Staphylococcus aureus; and as to Enterococcus faecalis not showing resistance to a chemical (hereinafter abbreviated as “EF 1”) and showing resistance to vancomycin (hereinafter abbreviated as “VRE”) for Enterococcus faecalis.
Test microorganisms of Staphylococcus aureus and Enterococcus faecalis, the same as Test Example 1, were selected; and measurement of MIC value of each peak substance was made by a broth microdilution method based on CLSI (formerly NCCLS: National Committee for Clinical Laboratory Standards) as to MSSA 1 and EF 1, and MRSA 3, MRSA 4, and VRE, the same as Test Example 1.
Antibacterial spectrum of the foregoing RH2180-5 Peak 5 Substance to various microorganisms including MRSA and VRE was studied. Each MIC value for the case added with 10% blood serum and for the case not added with the same was measured by a broth microdilution method based on CLSI (formerly NCCLS: National Committee for Clinical Laboratory Standards).

The subject of a further data set is Salmonella enterica.
Source text: as §1
Antibacterial spectrum of the RH2180-5 Peak 5 Substance to various bacteria including MRSA and VRE was studied. In addition, influence of chemical resistance was also studied. For study of the latter, Staphylococcus aureus and Enterococcus faecalis were selected, wherein measurement of MIC value of each peak substance was made by a broth microdilution method based on CLSI (formerly NCCLS: National Committee for Clinical Laboratory Standards) as to Staphylococcus aureus not showing resistance to a chemical (hereinafter abbreviated as “MSSA 1”) and two kinds of MRSA showing resistance to many chemicals including methicillin (MRSA 3 and MRSA 4; see Table 3 for resistive chemicals) for Staphylococcus aureus; and as to Enterococcus faecalis not showing resistance to a chemical (hereinafter abbreviated as “EF 1”) and showing resistance to vancomycin (hereinafter abbreviated as “VRE”) for Enterococcus faecalis. […]

For the next data set, the system named is Listeria monocytogenes. In kind it is cell-based.
The test system of the next data set is Streptococcus pyogenes. In kind it is cell-based.
In a further data set the test system is Candida tropicalis pK233. In kind it is cell-based.
The subject of data set [3] is Cryptococcus neoformans H99. In kind it is cell-based.
The test system of data set [4] is Smith strain of Staphylococcus aureus. Kind of data set: mouse Staphylococcus aureus infection model (therapeutic effect). Format: in vivo, mouse (ICR female). Here is the method: Smith strain of Staphylococcus aureus was suspended in 7% mucin+0.2 mM ferric ammonium citrate, and 6.2×10^6 (20×LD50) thereof was administered into the peritoneal cavity of 5 mice per group (ICR female of four weeks of age). Each drug was injected hypodermically 2 hours after administration of the bacterium by the method shown below.
Similarly, ED50 of vancomycin to the mouse model used this time was studied. […] Here, ED50 values were obtained by the probit method.

Data set [5] can be described thus: acute toxicity test to a mouse. In kind it is in vivo. As for the experimental part: Further, the RH2180-5 Peak 5 Substance was injected hypodermically to the mouse to study acute toxicity of the RH2180-5 Peak 5 Substance to the mouse by observation one day after the administration.
Data set [6] relates to Staphylococcus aureus. As to the kind of experiment: survived cell numbers (CFU) of Staphylococcus aureus after drug addition. Format: cell-based. The settings on record: 25 μg/ml. As for the experimental part:
To CA-Mueller Hinton Broth medium were taken 1.8×10^8 Staphylococcus aureus, and then the foregoing RH2180-5 Peak 5 Substance (25 μg/mL), vancomycin (VM, 5 μg/mL), and gentamicin (GM, 2.5 μg/mL) were added thereinto; and then, survived cell numbers after 15 minutes, 30 minutes, 60 minutes, and 120 minutes were obtained as CFU (colony forming unit/mL).

The test system of data set [7] is Staphylococcus aureus. As to the kind of experiment: bacteriolytic activity, absorbance at 600 nm (OD600). The settings on record: concentration five times that of Test Example 1, 37° C., compared with vancomycin and daptomycin, FIG. 11. In kind it is cell-based. Here is the method:
Staphylococcus aureus was diluted in CA-Mueller Hinton Broth medium; and then, the RH2180-5 Peak 5 Substance, vancomycin, and daptomycin were added thereinto with the concentrations thereof being five times as much as those of Test Example 1; and then, the microorganism was cultured at 37° C. By using an absorption spectrometer (manufactured by Shimadzu Corp.), absorbance at 600 nm (OD600) after their addition was followed with passage of time.

SMILES strings stand for the structures. In brackets after ≈: the same amount, converted by molar mass. Entries after “also recorded” stand apart in the source; their conditions may differ. Where two headings read alike, the source gives them in different places. Positions of bridges follow the written chain, without caps; N, C: chain ends. Non-standard residues stand in square brackets, D forms with d. Residues, ends and D or L forms follow the SMILES beside them. *: point of attachment. Hexanoyl(3R-OH,5-Me) = CC(C)C[C@@H](O)CC(=O)*; dNMeF = CN[C@H](Cc1ccccc1)C(=O)O Some results are limits rather than exact numbers.

For the molecule `CC[C@H](C)[C@@H]1NC(=O)[C@@H](Cc2c[nH]c3ccccc23)NC(=O)[C@@H](CCC(N)=O)NC(=O)[C@H](CCC(=O)O)NC(=O)[C@@H](CCCNC(=N)N)NC(=O)[C@H](CC(C)C)NC(=O)[C@@H](Cc2ccccc2)N(C)C(=O)CNC(=O)[C@H](CO)NC(=O)[C@@H](CCCNC(=N)N)NC(=O)[C@@H](NC(=O)C[C@H](O)CC(C)C)[C@@H](C)OC(=O)[C@H]([C@@H](C)O)NC1=O` [Peak P5] ({Hexanoyl(3R-OH,5-Me)}-T[dR]SG[dNMeF]L[dR]E[dQ][dW]IT; ester 1-C), the ED50 turned out to be 0.3 μg/g-larva in the data set on Staphylococcus aureus [1] and 0.6 mg/kg in [4] (mouse, S. aureus Smith 6.2 × 10^6 (20 × LD50) intraperitoneal, drug injected hypodermically 2 hours later, survival one day after, probit method). In addition, the MIC (usually the smallest concentration in the dilution series that meets the test's criterion for growth inhibition) in [2] (Table 3, Staphylococcus aureus (MSSA1), resistance-showing chemicals: Non) was 5 µg/mL (≈ 3.09 µM); in [2] (Table 4, MSSA1) it was 6.3 µg/mL (≈ 3.89 µM); in data set [2] (Table 6, with 10% serum, Methicillin susceptible S. aureus MSSA1 (clinical isolate)) it was 1.5 µg/mL (≈ 0.927 µM); in [2] (Table 6, without serum, Methicillin susceptible S. aureus MSSA1 (clinical isolate)), 3.1 µg/mL (≈ 1.92 µM); in the data set on Salmonella enterica (Table 3, Salmonella enteria) it was above 100 µg/mL; in the data set on Salmonella enterica (Table 6, without serum, Salmonella enterica) it was above 100 µg/mL. Moreover, the MIC with Listeria monocytogenes is 6.3 µg/mL (≈ 3.89 µM); in the data set with Streptococcus pyogenes it was 50 µg/mL (≈ 30.9 µM); against Candida tropicalis pK233, above 100 µg/mL; in [3] it was above 100 µg/mL. The “survival in the mouse Staphylococcus aureus infection model” value in data set [4] (25 mg/kg hypodermically, no survival with PBS administration, 5 mice per group) is listed as “survival of totality of mice”. For the same molecule, the “ED50 value relative to vancomycin” value in [4] (mouse Staphylococcus aureus infection model) is given as “about one third”. In addition, in data set [5] (injected hypodermically, up to 50 mg/kg, observation one day after the administration, listed as RH2180-5 Peak 5 Substance), the “acute toxicity to the mouse” value is on record as “mouse was not killed; also recorded: no toxicity observed”. In addition, the “highest dose without toxicity (50 mg/kg) relative to ED50” value in [5] (mouse, hypodermic) is recorded as 80 folds. In addition, the “CFU/ml of S. aureus” value is listed as <1 × 10^4 CFU/ml in the data set on Staphylococcus aureus [6] (15 minutes, start 1.8 × 10^8); <1 × 10^4 CFU/ml with Staphylococcus aureus [6] (30 minutes); <1 × 10^4 CFU/ml in the data set on Staphylococcus aureus [6] (60 minutes); <1 × 10^4 CFU/ml with Staphylococcus aureus [6] (120 minutes). Moreover, the “bacteriolytic activity (decrease of absorbance OD600)” value with Staphylococcus aureus [7] was “shows the bacteriolytic activity”. In addition, the Solubility to solvents result (chloroform) is “Insoluble”; the Solubility to solvents result (water, ethanol, methanol, and acetonitrile) is on record as “Soluble”.

(Values after patent US8754040B2, “Cyclic peptide compound, method for producing same, anti-infective agent, antibiotic-containing fraction, antibiotic, method for producing antibiotic, antibiotic-producing microorganism, and antibiotic produced by same” (priority 2010, dated 2014).)
